Assay type in all cases: biochemical
For assay [1], the target named is 92 kDa gelatinase (MMP-9) (Homo sapiens, UniProt P14780). The experiment in a line: MMP-9 enzyme inhibition assay (coumarin-labeled peptide substrate). The conditions noted are these: for pIC50: read-out: IC50 MMP9. The procedure: (§1) Compounds of the invention were tested to assess their activities as inhibitors of MMP-1, MMP-2, MMP-9, MMP-14, MMP-12 and TACE. MMP-9 Assay Protocol
(§2) Compounds of the invention were tested for inhibitory activity against 92 kDa gelatinase (MMP-9) in an assay using a coumarin-labeled peptide substrate, (7-methoxycoumarin-4-yl)acetyl-Pro-Leu-Gly-Leu-(3-[2,4-dinitrophenyl]-L-2,3diaminopropionyl)-Ala-Arg-NH2 (McaPLGLDpaAR) (Knight et al, FEBS Lett. 1992; 263-266).
(§3) Stock solutions were made up as follows: Assay Butter: 100 mM Tris-HCl pH 7.6 containing 100 mM NaCl, 10 mM CaCl2, and 0.05% Brij 35.
(§4) Substrate: 0.4 mM McaPLGLDpaAR (from Bachem) (0.437 mg/ml) stock solution in 100% DMSO (stored at −20° C.). Dilute to 8 μM in assay butter.
(§5) Enzyme: Recombinant human 92 kDa gelatinase (MMP-9; APMA (4-aminophenyl mercuric acetate)-activated if necessary) appropriately diluted in assay butter.
(§6) Test Compounds were prepared initially as 10 mM compound solution in 100% DMSO, diluted to 1 mM in 100% DMSO, then serially diluted 3-fold in 100% DMSO across columns 1-10 of a 96-well microtitre plate Assay concentration range, 100 μM (column 1) to 5.1 nM (column 10).
(§7) The assay was performed in a total volume of 100 μL per well in 96-well microtitre plates. Activated enzyme (20 μL) was added to the wells followed by 20 μL of assay butter. Appropriate concentrations of test compounds dissolved in 10 μL of DMSO were then added followed by 50 μL of McaPLGLDpaAR (8 μM, prepared by dilution of DMSO stock in assay butter). For each as say ten concentrations of test compound were examined in duplicate. Control wells lack either enzyme or test compound. The reactions were incubated at 37° C. for 2 hours. The fluorescence at 405 nm was measured immediately with an SLT Fluostar fluorometer (SL T Labinstruments GmbH, Grödig, Austria) using 320 nm excitation, without stopping the reaction.
(§8) The effect of the test compound was determined from the dose response curve generated by the 10 duplicate concentrations of inhibitor. The IC50 (the concentration of compound required to give a 50% decrease in enzyme activity) was obtained by fitting data to the equation, Y=a+((b−a)/(1+(c/X)^d)). (Y=inhibition achieved for a particular dose; X=the dose in nM; a=minimum y or zero % inhibition; b=maximum y or 100% inhibition; c=is the IC50; d=is the slope). The result was rounded to one significant figure.

Assay [2] concerns the target MMP-14 (Homo sapiens, UniProt P50281). Briefly: MMP-14 enzyme inhibition assay (coumarin-labelled peptide substrate). The following applies: for inhibition at 0.1 µM / inhibition at 5 µM: read-out: percentage inhibition MMP14; for pIC50: read-out: IC50 MMP14. Here is the method: as §1, §2, §3, §4, §5, §6, §7, §8
Compounds of the invention were tested for inhibitory activity against MMP-14 in an assay using a coumarin-labelled peptide substrate, (7-methoxycoumarin-4-yl)acetyl-Pro-Leu-Gly-Leu-(3-[2,4-dinitrophenyl]-L-2,3diaminopropionyl)-Ala-Arg-NH2 (Mca PLGLD paAR) (Knight et al, 1992, above). The protocol for this assay was as described for the MMP-9 assay above.

Assay [3] has as its target human ADAM17 (TACE) (Homo sapiens, UniProt P78536). Briefly: TACE enzyme inhibition assay. Here is the method: as §1
Compounds of the invention can be tested for inhibitory activity against human ADAM17 in an assay using human Mca-(endo-1a-Dap(Dnp)-TNF-alpha(−5 to +6)amide as substrate (FEBS Letters, 2000, 275-279).
Stock solutions are prepared as followed: • Assay Buffer: 20 mM Hepes pH 7.5 (Fluka) containing 0.05% Brij 35 (Fluka) • Substrate: 6.1 mM human Mca-(endo-1a-Dap(Dnp)-TNF-alpha(−5 to +6)amide (Bachem) stock solution in 100% DMSO (stored at −20° C.); diluted to 5 μM in assay buffer. • Enzyme: Recombinant human ADAM17, appropriately diluted in assay buffer (1.5 μg/ml).
Test Compounds are prepared initially as 10 mM compound solution in 100% DMSO, diluted to 1 mM in 100% DMSO, then serially diluted 3-fold in 100% DMSO across a 96-well microtitre plate. Assay concentration range is typically between 100 μM to 0.01 nM. The assay is performed in a total volume of 100 μL per well in 96-well microtitre plates. Appropriate concentrations of test compounds dissolved in 10 μL of DMSO are added to the wells, followed by substrate solution (50 μL, 5 μM prepared by dilution of DMSO stock in assay buffer) and enzyme solution (40 μL). For each as say ten concentrations of test compound are examined in […]. Control wells lack either enzyme or test compound. The reactions are incubated at room temperature for 1.5 hours. The fluorescence at 405 nm is measured immediately with a fluorometer using 355 nm excitation, without stopping the reaction.
The effect of the test compound is determined from the dose response curve generated by the 10 duplicate concentrations of inhibitor. The IC50 (the concentration of compound required to give a 50% decrease in enzyme activity) is obtained by fitting data to the equation, Y=a+((b−a)/(1+(c/X)^d)). (Y=inhibition achieved for a particular dose; X=the dose in nM; a=minimum y or zero % inhibition; b=maximum y or 100% inhibition; c=is the IC50; d=is the slope). The result is rounded to one significant figure.

The source of these data is US7879876B2, “Sulfonamide derivatives and use thereof for the modulation of metalloproteinases” (Merck Serono SA, priority 2005, dated 2011).

pIC50: −log10 of the molar value.

Sequence of human ADAM17 (TACE) (P78536 215-824): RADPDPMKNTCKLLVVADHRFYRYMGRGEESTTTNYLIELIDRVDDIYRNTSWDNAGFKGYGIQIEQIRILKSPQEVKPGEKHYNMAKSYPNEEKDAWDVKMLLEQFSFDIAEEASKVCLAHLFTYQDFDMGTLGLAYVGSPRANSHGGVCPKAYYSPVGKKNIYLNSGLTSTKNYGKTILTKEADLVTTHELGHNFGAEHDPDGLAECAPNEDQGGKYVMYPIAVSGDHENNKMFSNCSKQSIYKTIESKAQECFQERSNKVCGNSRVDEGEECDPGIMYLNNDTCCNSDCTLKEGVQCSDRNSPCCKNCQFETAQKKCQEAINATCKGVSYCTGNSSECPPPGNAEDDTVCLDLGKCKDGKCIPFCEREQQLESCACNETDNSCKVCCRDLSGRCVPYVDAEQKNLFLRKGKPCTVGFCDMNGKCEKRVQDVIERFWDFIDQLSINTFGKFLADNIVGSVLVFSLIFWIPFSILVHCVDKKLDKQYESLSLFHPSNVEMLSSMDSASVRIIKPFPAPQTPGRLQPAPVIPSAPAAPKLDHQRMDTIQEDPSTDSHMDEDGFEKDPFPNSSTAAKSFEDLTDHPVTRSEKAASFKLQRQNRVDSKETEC
Sequence of 92 kDa gelatinase (MMP-9) (P14780 107-707 limits assumed): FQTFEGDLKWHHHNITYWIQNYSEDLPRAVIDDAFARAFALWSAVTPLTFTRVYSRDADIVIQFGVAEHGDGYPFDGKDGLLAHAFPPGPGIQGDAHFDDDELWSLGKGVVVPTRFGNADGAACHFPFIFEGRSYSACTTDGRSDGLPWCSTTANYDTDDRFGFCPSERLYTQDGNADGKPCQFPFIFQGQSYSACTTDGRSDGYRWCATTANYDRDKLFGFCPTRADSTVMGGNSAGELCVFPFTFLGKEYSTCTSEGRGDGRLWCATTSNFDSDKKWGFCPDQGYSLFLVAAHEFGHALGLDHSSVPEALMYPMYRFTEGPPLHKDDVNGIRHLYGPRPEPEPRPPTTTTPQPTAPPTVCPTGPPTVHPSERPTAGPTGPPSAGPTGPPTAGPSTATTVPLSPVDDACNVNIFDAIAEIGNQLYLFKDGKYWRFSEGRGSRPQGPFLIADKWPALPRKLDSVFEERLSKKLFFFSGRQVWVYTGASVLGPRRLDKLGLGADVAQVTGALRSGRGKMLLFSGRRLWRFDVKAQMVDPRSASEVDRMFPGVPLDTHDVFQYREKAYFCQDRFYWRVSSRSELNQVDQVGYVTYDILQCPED

For `CC(C)(C)OC(=O)N1CCC[C@@H]1[C@@H](CS(=O)(=O)N1CCc2cc(Cl)c(Cl)cc2C1)N(O)C=O` (racemic) [Example 44, tert-butyl (2RS)-2-{(1SR)-2-[(6,7-dichloro-3,4-dihydro-isoquinolin-2(1H)-yl)sulfonyl]-1-[formyl(hydroxy)amino]ethyl}pyrrolidine-1-carboxylate], the inhibition (commonly the share of the control response that was lost under treatment) at 5 µM in assay [1] (@ 5 μM, read-out: percentage inhibition MMP9) stood at 21%. Also, in assay [2], the inhibition at 0.1 µM was 5% and the inhibition at 5 µM is 83%. Besides, the pIC50 (in general, the negative decadic logarithm of the IC50, by convention in mol/L) in assay [3] was 6.43.

With `O=CN(O)C(CCc1ccccc1)CS(=O)(=O)N1CCc2ccccc2C1` (stereo not shown) [Example 1, N-{1-[(3,4-dihydroisoquinolin-2(1H)-ylsulfonyl)methyl]-3-phenylpropyl}-N-hydroxyformamide], the pIC50 in assay [1] was less than 5.30; in assay [2], less than 5.30; in assay [3] it was 7.17.

`CC1(C)OC[C@H](C(CS(=O)(=O)N2CCc3ccccc3C2)N(O)C=O)O1` (stereo partly drawn) [Example 2, N-{2-(3,4-dihydroisoquinolin-2(1H)-ylsulfonyl)-1-[(4S)-2,2-dimethyl-1,3-dioxolan-4-yl]ethyl}-N-hydroxyformamide]: the pIC50 in assay [1] is less than 5.30; in assay [2] it was less than 5.30; in assay [3], 7.48.

For `CCCCCC(CS(=O)(=O)N1CCc2ccccc2C1)N(O)C=O` (stereo not shown) [Example 3, N-{1-[(3,4-dihydroisoquinolin-2(1H)-ylsulfonyl)methyl]hexyl}-N-hydroxyformamide], the pIC50 is less than 5.30 in assay [1] and 7.55 in assay [3]. Besides, the inhibition at 5 µM in assay [2] came out at 67%.

Regarding `O=CN(O)C(CS(=O)(=O)N1CCc2ccccc2C1)C1CC1` (stereo not shown) [Example 4, N-[1-cyclopropyl-2-(3,4-dihydroisoquinolin-2(1H)-ylsulfonyl)ethyl]-N-hydroxyformamide], the negative-log IC50 (pIC50) in assay [1] is less than 5.30; in assay [3], 6.94. Besides, the inhibition at 5 µM in assay [2] came out at 29%.

Turning to `O=CN(O)C(CCc1ccccc1)CS(=O)(=O)N1Cc2ccccc2C1` (stereo not shown) [Example 6, N-{1-[(1,3-dihydro-2H-isoindol-2-ylsulfonyl)methyl]-3-phenylpropyl}-N-hydroxyformamide], the pIC50 is 6.06 in assay [1], 6.06 in assay [2] and 6.55 in assay [3].

Turning to `O=CN(O)C(CS(=O)(=O)N1CCc2ccccc2C1)c1cncnc1` (stereo not shown) [Example 9, N-[2-(3,4-dihydroisoquinolin-2(1H)-ylsulfonyl)-1-pyrimidin-5-ylethyl]-N-hydroxyformamide], the figures for the negative logarithm of the IC50 (pIC50) in assay [1] and in assay [3] were less than 5.30 and 6.89, respectively. Moreover, in assay [2], the inhibition at 5 µM is 61%.

Take `O=CN(O)C(CS(=O)(=O)N1CCc2ccccc2C1)c1cccnc1` (stereo not shown) [Example 10, N-[2-(3,4-dihydroisoquinolin-2(1H)-ylsulfonyl)-1-pyridin-3-ylethyl]-N-hydroxyformamide]: the negative logarithm of the IC50 (pIC50) in assay [1] is less than 5.30; in assay [3] it was 7.17. In addition, the inhibition at 5 µM in assay [2] is 36%.

On to `COc1cc2c(cc1OC)CN(S(=O)(=O)CC(CCc1ccccc1)N(O)C=O)CC2` (stereo not shown) [Example 12, N-(1-{[(6,7-dimethoxy-3,4-dihydroisoquinolin-2(1H)-yl)sulfonyl]methyl}-3-phenylpropyl)-N-hydroxyformamide], for which the pIC50 in assay [1] is less than 5.30; in assay [3], 5.91. Besides, the inhibition at 5 µM in assay [2] was determined as 0%.

As to `COc1ccc(C(CS(=O)(=O)N2CCc3ccccc3C2)N(O)C=O)cn1` (stereo not shown) [Example 13, N-[2-(3,4-dihydroisoquinolin-2(1H)-ylsulfonyl)-1-(6-methoxypyridin-3-yl)ethyl]-N-hydroxyformamide], the pIC50 was less than 5.30 in assay [1] and 7.40 in assay [3]. Moreover, in assay [2], the inhibition at 5 µM amounted to 64%.

As to `COc1cc2c(cc1OC)CN(S(=O)(=O)CC([C@H]1COC(C)(C)O1)N(O)C=O)CC2` (stereo partly drawn) [Example 14, N-{2-[(6,7-dimethoxy-3,4-dihydroisoquinolin-2(1H)-yl)sulfonyl]-1-[(4S)-2,2-dimethyl-1,3-dioxolan-4-yl]ethyl}-N-hydroxyformamide], the negative logarithm of the IC50 (pIC50) in assay [1] is less than 5.30; in assay [3], 6.21. In assay [2], the inhibition at 5 µM was 0%.

Take `CC1(C)OC[C@H](C(CS(=O)(=O)N2Cc3ccccc3C2)N(O)C=O)O1` (stereo partly drawn) [Example 16, N-{2-(1,3-dihydro-2H-isoindol-2-ylsulfonyl)-1-[(4S)-2,2-dimethyl-1,3-dioxolan-4-yl]ethyl}-N-hydroxyformamide]: the pIC50 in assay [1] is less than 5.30. In assay [2], the inhibition at 0.1 µM is 0% and the inhibition at 5 µM was determined as 80%. Also, in assay [3], the negative-log IC50 (pIC50) is 6.51.

For the compound `CC(C)c1ccc2c(c1)CCN(S(=O)(=O)CC([C@H]1COC(C)(C)O1)N(O)C=O)C2` (stereo partly drawn) [Example 18, N-{1-[(4S)-2,2-dimethyl-1,3-dioxolan-4-yl]-2-[(6-isopropyl-3,4-dihydroisoquinolin-2(1H)-yl)sulfonyl]ethyl}-N-hydroxyformamide], the values for the pIC50 in assay [1] and in assay [3] were less than 5.30 and 6.19, respectively. In addition, the inhibition at 0.1 µM in assay [2] worked out at 13%. The inhibition at 5 µM in assay [2] amounted to 95%.

Consider `CC1(C)OC[C@H](C(CS(=O)(=O)N2CCc3ccc(Cl)cc3C2)N(O)C=O)O1` (stereo partly drawn) [Example 19, N-{2-[(7-chloro-3,4-dihydroisoquinolin-2(1H)-yl)sulfonyl]-1-[(4S)-2,2-dimethyl-1,3-dioxolan-4-yl]ethyl}-N-hydroxyformamide], for which, in assay [1], the pIC50 is less than 5.30. For the same compound, in assay [2], the inhibition at 0.1 µM is 10% and the inhibition at 5 µM was determined as 81%. In assay [3], this compound had a negative-log IC50 (pIC50) of 7.64.

Consider `O=CN(O)C(CS(=O)(=O)N1CCc2ccc(Cl)cc2C1)C1CCCC1` (stereo not shown) [Example 21, N-{2-[(7-chloro-3,4-dihydroisoquinolin-2(1H)-yl)sulfonyl]-1-cyclopentylethyl}-N-hydroxyformamide], for which the negative-log IC50 (pIC50) in assay [1] was less than 5.30; in assay [3] it was 7.25. Further, the inhibition at 5 µM in assay [2] amounted to 45%.

Take `O=CN(O)[C@@H](CS(=O)(=O)N1CCc2ccc(Cl)cc2C1)[C@H]1CCCO1` [Example 22, N-{(1R)-2-[(7-chloro-3,4-dihydroisoquinolin-2(1H)-yl)sulfonyl]-1-[(2R)-tetrahydrofuran-2-yl]ethyl}-N-hydroxyformamide]: the pIC50 in assay [1] was less than 5.30; in assay [3] it was 6.41. Further, the inhibition at 5 µM in assay [2] was determined as 0%.
